According to US20100035857A1, “ANTI-HYPERCHOLESTEROLEMIC COMPOUNDS” (priority 2006, published 2010):

System: cholesterol absorption
Assay: Cholesterol Absorption Assay in Rats
Assay type: in vivo
Settings: CD male rats, oral, at the highest dose tested; [3H]-cholesterol counts in liver and plasma
Protocol: Compounds can be tested for cholesterol absorption activity in assays using, e.g., rats or mice, and are preferably tested in the rat assay described herein. Representative compounds of this invention were determined to inhibit cholesterol absorption employing the Cholesterol Absorption Assay in Rats, below. This assay involves comparing a test compound to ezetimibe with respect to their ability to inhibit cholesterol absorption in rats.
Cholesterol Absorption Assay in Rats: CD male rats (n=5/group), aged 5 weeks, were dosed orally with 0.5 ml 0.25% methyl cellulose solution with or without test compound or ezetimibe (0.0003 to 1 mg/kg). 0.5 to 16 hrs later all of the rats were dosed orally with 0.5 ml […]® containing 5 μCi [^3H]-cholesterol per rat. Five hours later, the animals were euthanized, and liver and blood were collected. Cholesterol counts in liver and plasma were determined, and percent inhibition of cholesterol absorption was calculated.

## O=C1[C@H](CC[C@H](O)c2ccc(F)cc2)[C@@H](c2ccc(O)cc2)N1c1ccc(F)cc1 [ezetimibe, Ezetimibe]
  inhibition of cholesterol absorption: > 75%
